≈ marks a conversion by molar mass, not a printed value.
Columns and labels:
[1] = tested on: NB4 (acute promyelocytic leukemia, AML); test: MTT growth inhibition of leukemia cells, 72 h; assay type: cell-based, human; settings: Homo sapiens, NB4, 72 h; for IC50: read-out: IC50; for IC90: read-out: IC90
Text: (§1) Leukemia cell lines: leukemia cell lines: K562/adr (drug-resistant, chronic myeloid leukemia, CML), NB4 (acute promyelocytic leukemia, AML), Kasumi-1 (acute myeloid leukemia M2 type, AML-M2), and Jurkat (acute lymphoblastic leukemia, ALL), all of which are donated by Cancer Research Institute of Zhejiang University, China; and H9 (acute lymphoblastic leukemia, ALL), which is purchased from China Center for Type Culture Collection (CCTCC).
(§2) The standard sample of tanshinone I (TA) and the 2-aminated methylene or 2-esterified methylene tanshinone I derivatives of the present invention are sufficiently dissolved with dimethylsulfoxide to produce a stock solution of 10 mg/mL, which is refrigerated at 4° C. and stored in dark, and is diluted with a cell culture medium to the desired concentration prior to experimentation.
(§3) Obtaining 6000 well-growing leukemia cells and inoculating them into wells of a 96-well cell culture plate. The culture medium is the RPMI-1640 cell culture medium containing 10% fetal bovine serum. After adding on the second day the 2-aminated methylene or 2-esterified methylene tanshinone I derivatives of different concentrations and mixing uniformly, placing the plate in a carbon dioxide cell incubator (5% CO2) at 37° C. and incubated for 72 hours. Then the viable cell concentration is determined by MTT method.

[2] = tested on: K562/adr (drug-resistant, chronic myeloid leukemia, CML); test: MTT growth inhibition of leukemia cells, 72 h; assay type: cell-based, human; settings: Homo sapiens, K562/Adr; for IC50: read-out: IC50; for IC90: read-out: IC90
Text: as §1, §2, §3

[3] = tested on: H9 (acute lymphoblastic leukemia, ALL); test: MTT growth inhibition of leukemia cells, 72 h; assay type: cell-based, human; settings: Homo sapiens, H9, 72 h; for IC50: read-out: IC50; for IC90: read-out: IC90
Text: as §1, §2, §3

[4] = tested on: Jurkat (acute lymphoblastic leukemia, ALL); test: MTT growth inhibition of leukemia cells, 72 h; assay type: cell-based, human; settings: Homo sapiens, 72 h; for IC50: read-out: IC50; for IC90: read-out: IC90
Text: as §1, §2, §3

[5] = tested on: Kasumi-1 (acute myeloid leukemia M2 type, AML-M2); test: MTT growth inhibition of leukemia cells, 72 h; assay type: cell-based, human; settings: Homo sapiens, Kasumi-1, 72 h; for IC50: read-out: IC50; for IC90: read-out: IC90
Text: as §1, §2, §3

A549 (human lung cancer) = test: MTT growth inhibition of human solid tumor cells, 72 h; assay type: cell-based; settings: Homo sapiens, A549, 72 h; for IC50: read-out: IC50; for IC90: read-out: IC90
Procedure: (§4) Hep-2 (laryngeal carcinoma), A549 (human lung cancer), CaES-17 (esophageal cancer cell), PC-3 (prostate cancer), CNE (nasopharyngeal carcinoma cell), and SK-OV-3 (ovarian cancer cell), all of which are purchased from China Center For Type Culture Collection; RKO (human colon adenocarcinoma cell), MGC 803 (human gastric cancer cell), MG63 (osteosarcoma) and U87 MG (malignant glioma cell), all of which are purchased from Fuxiang Bio-tech Co. Ltd., Shanghai, China; PANC-1 (pancreatic cancer), Hep G2 (human liver cancer cell), Becap37 (human breast cancer cell) and Hela (human cervical cancer cell), all of which are donated by Cancer Research Institute of Zhejiang University, China.
as §2
(§5) Obtaining 4000 well-growing human solid tumor cells and inoculating them into wells of a 96-well cell culture plate. The culture medium is DMEM High Glucose cell culture medium containing 10% fetal bovine serum. The plate is placed in a carbon dioxide cell incubator (5% CO2) at 37° C. and incubated for 24 hours. After adding the 2-aminated methylene or 2-esterified methylene tanshinone I derivatives of different concentrations and mixing uniformly, the plate is placed in a carbon dioxide cell incubator (5% CO2) at 37° C. and incubated for 72 hours. Then the viable cell concentration is determined by the MTT method.

[6] = tested on: SK-OV-3 (ovarian cancer cell); test: as above; assay type: cell-based; settings: Homo sapiens, SK-OV-3, 72 h; for IC50: read-out: IC50; for IC90: read-out: IC90
Procedure: as §4, §2, §5

[7] = tested on: U87 MG (malignant glioma cell); test: as above; assay type: cell-based; settings: Homo sapiens, U-87 MG, U87-MG, 72 h; for IC50: read-out: IC50; for IC90: read-out: IC90
Procedure: as §4, §2, §5

[8] = tested on: Becap37 (human breast cancer cell); test: as above; assay type: cell-based; settings: Homo sapiens, Becap-37, 72 h; for IC50: read-out: IC50; for IC90: read-out: IC90
Procedure: as §4, §2, §5

PC-3 (prostate cancer) = test: as above; assay type: cell-based; settings: Homo sapiens, PC-3, 72 h; for IC50: read-out: IC50; for IC90: read-out: IC90
Procedure: as §4, §2, §5

[9] = tested on: PANC-1 (pancreatic cancer); test: as above; assay type: cell-based; settings: Homo sapiens, PANC-1, 72 h; for IC50: read-out: IC50; for IC90: read-out: IC90
Procedure: as §4, §2, §5

[10] = tested on: CNE (nasopharyngeal carcinoma cell); test: as above; assay type: cell-based; settings: Homo sapiens; for IC50: read-out: IC50; for IC90: read-out: IC90
Procedure: as §4, §2, §5

MG63 (osteosarcoma) = test: as above; assay type: cell-based; settings: Homo sapiens, MG-63, 72 h; for IC50: read-out: IC50; for IC90: read-out: IC90
Procedure: as §4, §2, §5

[11] = tested on: RKO (human colon adenocarcinoma cell); test: as above; assay type: cell-based; settings: Homo sapiens; for IC50: read-out: IC50; for IC90: read-out: IC90
Procedure: as §4, §2, §5

[12] = tested on: CaES-17 (esophageal cancer cell); test: as above; assay type: cell-based; settings: Homo sapiens, CaEs17, CaEs-17, 72 h; for IC50: read-out: IC50; for IC90: read-out: IC90
Procedure: as §4, §2, §5

[13] = tested on: Hep G2 (human liver cancer cell); test: as above; assay type: cell-based; settings: Homo sapiens, HepG2, Hep G2, 72 h; for IC50: read-out: IC50; for IC90: read-out: IC90
Procedure: as §4, §2, §5

[14] = tested on: MGC 803 (human gastric cancer cell); test: as above; assay type: cell-based; settings: Homo sapiens, MGC-803, 72 h; for IC50: read-out: IC50; for IC90: read-out: IC90
Procedure: as §4, §2, §5

[15] = tested on: Hep-2 (laryngeal carcinoma); test: as above; assay type: cell-based; settings: Homo sapiens, HEp-2, 72 h; for IC50: read-out: IC50; for IC90: read-out: IC90
Procedure: as §4, §2, §5

[16] = tested on: Hela (human cervical cancer cell); test: as above; assay type: cell-based; settings: Homo sapiens, HeLa, 72 h; for IC50: read-out: IC50; for IC90: read-out: IC90
Procedure: as §4, §2, §5

[17] = tested on: RPMI8226 (multiple myeloma); test: MTT growth inhibition of multiple myeloma cells, 72 h; assay type: cell-based, human; settings: Homo sapiens, RPMI 8226, 72 h; for IC50: read-out: IC50; for IC90: read-out: IC90
Procedure: Myeloma cell lines: RPMI8226 (multiple myeloma), purchased from Fuxiang Bio-tech Co. Ltd., Shanghai, China.
as §2
Obtaining 6000 well-growing myeloma cells as above and inoculating them into wells of a 96-well cell culture plate. The culture medium is the 1640 cell culture medium containing 10% fetal bovine serum. After adding the 2-aminated methylene or 2-esterified methylene tanshinone I derivatives of different concentrations and mixing uniformly, placing the plate in a carbon dioxide cell incubator (5% CO2) at 37° C. and incubated for 72 hours. Then the viable cell concentration is determined by MTT method.

`CCN(C)Cc1oc2c(c1C)C(=O)C(=O)c1c-2ccc2c(C)cccc12` [BS-TA-B03] showed an IC50 [1] of 0.92 µg/mL (≈ 2.65 µM), an IC90 [1] of 3.01 µg/mL (≈ 8.66 µM) and an IC50 [2] of 1.22 µg/mL (≈ 3.51 µM). The IC90 [2] was 2.69 µg/mL (≈ 7.74 µM), the IC50 [3] was 3.3 µg/mL (≈ 9.5 µM) and the IC90 [3] was 6.8 µg/mL (≈ 19.6 µM). For the same molecule, the IC50 [4] was 2.36 µg/mL (≈ 6.79 µM), the IC90 [4] was 6.15 µg/mL (≈ 17.7 µM) and the IC50 [5] was 0.81 µg/mL (≈ 2.33 µM). It also gave an IC90 [5] of 2 µg/mL (≈ 5.76 µM), an IC50 (A549 (human lung cancer)) of 0.8 µg/mL (≈ 2.3 µM) and an IC90 (A549 (human lung cancer)) of 4.43 µg/mL (≈ 12.8 µM). The IC50 [6] was 12.8 µg/mL (≈ 36.9 µM), the IC90 [6] was 21.7 µg/mL (≈ 62.4 µM) and the IC50 [7] was 2.36 µg/mL (≈ 6.79 µM). It also gave an IC90 [7] of 3.85 µg/mL (≈ 11.1 µM), an IC50 [8] of 4 µg/mL (≈ 11.5 µM) and an IC90 [8] of 9.37 µg/mL (≈ 27 µM). For the same molecule, the IC50 (PC-3 (prostate cancer)) was 5.39 µg/mL (≈ 15.5 µM), the IC90 (PC-3 (prostate cancer)) was 12.3 µg/mL (≈ 35.5 µM) and the IC50 [9] was 3.14 µg/mL (≈ 9.04 µM). For the same molecule, the IC90 [9] was 16 µg/mL (≈ 46.1 µM), the IC50 [10] was 8.8 µg/mL (≈ 25.3 µM) and the IC90 [10] was 43.6 µg/mL (≈ 125 µM). It also gave an IC50 (MG63 (osteosarcoma)) of 4.53 µg/mL (≈ 13 µM), an IC90 (MG63 (osteosarcoma)) of 13 µg/mL (≈ 37.4 µM) and an IC50 [11] of 0.49 µg/mL (≈ 1.41 µM). The IC90 [11] was 14.6 µg/mL (≈ 41.9 µM), the IC50 [12] was 5.55 µg/mL (≈ 16 µM) and the IC90 [12] was 10.3 µg/mL (≈ 29.8 µM). It also gave an IC50 [13] of 4.69 µg/mL (≈ 13.5 µM), an IC90 [13] of 22.1 µg/mL (≈ 63.6 µM) and an IC50 [14] of 3.86 µg/mL (≈ 11.1 µM). For the same molecule, the IC90 [14] was 7.99 µg/mL (≈ 23 µM), the IC50 [15] was 6.11 µg/mL (≈ 17.6 µM) and the IC90 [15] was 18.5 µg/mL (≈ 53.1 µM). It also gave an IC50 [16] of 3.99 µg/mL (≈ 11.5 µM), an IC90 [16] of 11 µg/mL (≈ 31.5 µM) and an IC50 [17] of 2.83 µg/mL (≈ 8.15 µM). The IC90 [17] was 5.87 µg/mL (≈ 16.9 µM).

In the case of `Cc1c(CN(C)CCOC(=O)C2CCNCC2)oc2c1C(=O)C(=O)c1c-2ccc2c(C)cccc12` [BS-TA-64], the IC50 [1] was 0.25 µg/mL (≈ 0.527 µM), the IC90 [1] was 0.87 µg/mL (≈ 1.83 µM) and the IC50 [2] was 0.84 µg/mL (≈ 1.77 µM). The IC90 [2] was 2.82 µg/mL (≈ 5.94 µM), the IC50 [3] was 0.59 µg/mL (≈ 1.24 µM) and the IC90 [3] was 1.63 µg/mL (≈ 3.43 µM). For the same molecule, the IC50 [4] was 0.54 µg/mL (≈ 1.14 µM), the IC90 [4] was 1.92 µg/mL (≈ 4.05 µM) and the IC50 [5] was 0.33 µg/mL (≈ 0.695 µM). The IC90 [5] was 0.7 µg/mL (≈ 1.48 µM), the IC50 (A549 (human lung cancer)) was 1.4 µg/mL (≈ 2.95 µM) and the IC90 (A549 (human lung cancer)) was 4.46 µg/mL (≈ 9.4 µM). For the same molecule, the IC50 [6] was 3.55 µg/mL (≈ 7.48 µM), the IC90 [6] was 7.76 µg/mL (≈ 16.4 µM) and the IC50 [7] was 1.16 µg/mL (≈ 2.44 µM). It also gave an IC90 [7] of 3.72 µg/mL (≈ 7.84 µM), an IC50 [8] of 0.77 µg/mL (≈ 1.62 µM) and an IC90 [8] of 1.67 µg/mL (≈ 3.52 µM). It also gave an IC50 (PC-3 (prostate cancer)) of 1.8 µg/mL (≈ 3.79 µM), an IC90 (PC-3 (prostate cancer)) of 4.15 µg/mL (≈ 8.74 µM) and an IC50 [9] of 0.71 µg/mL (≈ 1.5 µM). The IC90 [9] was 5.07 µg/mL (≈ 10.7 µM), the IC50 [10] was 1.8 µg/mL (≈ 3.79 µM) and the IC90 [10] was 3.8 µg/mL (≈ 8.01 µM). The IC50 (MG63 (osteosarcoma)) was 0.82 µg/mL (≈ 1.73 µM), the IC90 (MG63 (osteosarcoma)) was 2.16 µg/mL (≈ 4.55 µM) and the IC50 [11] was 0.29 µg/mL (≈ 0.611 µM). The IC90 [11] was 5.56 µg/mL (≈ 11.7 µM), the IC50 [12] was 0.88 µg/mL (≈ 1.85 µM) and the IC90 [12] was 1.85 µg/mL (≈ 3.9 µM). It also gave an IC50 [13] of 1.31 µg/mL (≈ 2.76 µM), an IC90 [13] of 3.66 µg/mL (≈ 7.71 µM) and an IC50 [14] of 0.85 µg/mL (≈ 1.79 µM). The IC90 [14] was 3.24 µg/mL (≈ 6.83 µM), the IC50 [15] was 1.67 µg/mL (≈ 3.52 µM) and the IC90 [15] was 3.65 µg/mL (≈ 7.69 µM). For the same molecule, the IC50 [16] was 2.16 µg/mL (≈ 4.55 µM), the IC90 [16] was 3.9 µg/mL (≈ 8.22 µM) and the IC50 [17] was 0.4 µg/mL (≈ 0.843 µM). For the same molecule, the IC90 [17] was 0.92 µg/mL (≈ 1.94 µM).
